From article PMC2857651, “A Single Amino Acid Change Converts the Sugar Sensor SGLT3 into a Sugar Transporter” (PLoS ONE, 2010)
Substitutions are numbered along the chain they refer to. In names and notes the source's numbering stands. Blank lines part the entries; values can stand above or below the molecule they belong to.

Experiments:
hSGLT3 [1] = target: T1, hSGLT3 (Homo sapiens, UniProt Q9NY91, E457Q); assay: inhibition of αM-glc-induced depolarization, two-electrode recording in Xenopus oocytes; assay type: cell-based; settings: read-out: E457Q-hSGLT3 / K0.5
T1 construct: gene SLC5A4; full-length cDNA, cRNA expressed in Xenopus laevis oocytes (untagged in the oocyte tests)
T1 sequence (Q9NY91 1-659 E457Q): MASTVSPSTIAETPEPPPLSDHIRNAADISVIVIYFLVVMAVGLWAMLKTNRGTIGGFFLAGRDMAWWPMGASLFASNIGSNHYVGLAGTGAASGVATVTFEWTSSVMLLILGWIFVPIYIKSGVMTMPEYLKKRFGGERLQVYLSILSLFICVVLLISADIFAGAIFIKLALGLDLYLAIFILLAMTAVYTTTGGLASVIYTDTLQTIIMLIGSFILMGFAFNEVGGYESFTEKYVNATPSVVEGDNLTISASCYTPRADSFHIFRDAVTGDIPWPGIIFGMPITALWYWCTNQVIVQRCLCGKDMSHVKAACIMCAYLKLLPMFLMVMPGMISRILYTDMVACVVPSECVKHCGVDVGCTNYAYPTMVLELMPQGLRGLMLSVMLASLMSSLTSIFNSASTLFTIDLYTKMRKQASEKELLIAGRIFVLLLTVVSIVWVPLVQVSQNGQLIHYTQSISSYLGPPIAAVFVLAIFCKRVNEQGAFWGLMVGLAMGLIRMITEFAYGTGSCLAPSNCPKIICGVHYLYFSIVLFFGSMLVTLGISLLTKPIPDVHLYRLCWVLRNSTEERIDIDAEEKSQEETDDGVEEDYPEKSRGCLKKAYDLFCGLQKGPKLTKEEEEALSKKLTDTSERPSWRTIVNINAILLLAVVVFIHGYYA
Source text: inhibition of αM-glc-induced depolarization, two-electrode recording in Xenopus oocytes on hSGLT3

hSGLT3 [2] = target: T2, hSGLT3 (Homo sapiens, UniProt Q9NY91); assay: inhibition of glucose-induced current, two-electrode voltage clamp in Xenopus oocytes; assay type: cell-based; settings: pH 5, glucose present; phlorizin also blocks about two-thirds of the H+-induced current
T2 construct: gene SLC5A4; full-length cDNA, cRNA expressed in Xenopus laevis oocytes (untagged in the oocyte tests)
T2 sequence (Q9NY91 1-659): T1 sequence (Q9NY91 1-659 E457Q) with Q457E

hSGLT3 [3] = target: T2, hSGLT3; assay: sugar-induced current, two-electrode voltage clamp in Xenopus oocytes; assay type: cell-based; settings: 150 mM αM-glc, Na+ buffer; bound but not transported
[4] = substrate: CO[C@H]1O[C@H](CO)[C@@H](O)[C@H](O)[C@H]1O; assay: sugar-induced depolarization, two-electrode recording in Xenopus oocytes; assay type: cell-based, Homo sapiens; settings: 100 mM Na+, pH 7.4, room temperature, n = 3
Source text: sugar-induced depolarization, two-electrode recording in Xenopus oocytes on hSGLT3

- Ki (hSGLT3 [1]): 1.6 ± 0.09 µM
- % inhibition at 100 μM (hSGLT3 [2]): 2/3
Molecule: O=C(CCc1ccc(O)cc1)c1c(O)cc(O)cc1O[C@@H]1O[C@H](CO)[C@@H](O)[C@H](O)[C@H]1O [phlorizin]

Molecule: CO[C@H]1O[C@H](CO)[C@@H](O)[C@H](O)[C@H]1O [αM-glc]
- sugar-induced current, two-electrode voltage clamp in Xenopus oocytes (hSGLT3 [3]): sugar-induced current (difference between black and open circles in 3D and 3G)

B1: hSGLT3 (Homo sapiens; E457Q) (protein)
chain: T1 sequence (Q9NY91 1-659 E457Q)
notes: full-length cDNA, cRNA expressed in Xenopus laevis oocytes (untagged in the oocyte tests)
- K0.5 [4]: 0.5 ± 0.03 mM
